# Reference: publication PMC12442245, “Activity Analysis of the P2X Receptor Antagonist PPADS against Signal Transducer and Activator of Transcription Proteins” (Chembiochem, 2025)
# Target: T1, STAT4 (Homo sapiens, UniProt Q14765)
# T1 sequence (Q14765 1-748): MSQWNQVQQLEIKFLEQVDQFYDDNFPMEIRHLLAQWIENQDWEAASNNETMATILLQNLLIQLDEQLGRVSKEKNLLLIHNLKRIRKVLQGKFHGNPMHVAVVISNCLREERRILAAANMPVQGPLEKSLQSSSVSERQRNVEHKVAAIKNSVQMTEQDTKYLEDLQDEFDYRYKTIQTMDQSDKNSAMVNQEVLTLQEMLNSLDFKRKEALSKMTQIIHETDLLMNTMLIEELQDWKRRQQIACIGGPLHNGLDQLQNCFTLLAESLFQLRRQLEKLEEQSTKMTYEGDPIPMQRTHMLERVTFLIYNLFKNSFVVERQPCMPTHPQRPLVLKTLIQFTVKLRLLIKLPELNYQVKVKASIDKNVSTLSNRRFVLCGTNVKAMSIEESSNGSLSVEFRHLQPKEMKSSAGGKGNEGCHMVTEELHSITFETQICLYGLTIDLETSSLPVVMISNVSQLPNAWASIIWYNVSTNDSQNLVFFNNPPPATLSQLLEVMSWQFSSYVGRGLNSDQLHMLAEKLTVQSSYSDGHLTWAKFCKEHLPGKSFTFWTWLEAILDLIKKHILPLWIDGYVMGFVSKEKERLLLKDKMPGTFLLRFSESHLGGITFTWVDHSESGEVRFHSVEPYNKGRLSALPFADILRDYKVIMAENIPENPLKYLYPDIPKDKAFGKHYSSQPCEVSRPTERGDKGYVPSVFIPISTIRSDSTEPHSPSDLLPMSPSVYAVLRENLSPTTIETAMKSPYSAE
# Assay: HTRF assay, STAT4
# Assay type: binding
# Conditions: STAT4 30 nM, without reducing agent, 1 h
# From the text: The azo dyes PPADS and iso‐PPADS have a deep red color in aqueous solution. […] In order to exclude this possibility, we established homogeneous time‐resolved fluorescence resonance energy transfer (HTRF) assays to confirm the degree of binding between STAT4, STAT5a, and STAT5b and the respective 5‐carboxyfluorescein‐labeled binding peptides used in the FP assay. In addition, an HTRF assay was established for STAT3, one of the STAT proteins targeted to a lesser extent in FP assays, as a specificity control (Figure 1B,C). The STAT protein constructs each contain a 6x‐His‐tag.^[ [15], [16], [17], [22] ^] A Tb^3+‐cryptate fused to an anti‐6x‐His antibody was chosen as the long‐lived fluorescent donor, while the carboxyfluorescein linked to the respective STAT‐binding peptides served as the acceptor (Figure 2A). Emission was measured with a time delay of 60 μs after excitation, allowing any initial compound fluorescence to decay beforehand. […]
# Screening of chemical libraries comprising approximately 5000 known bioactive compounds in fluorescence polarization-based assays against phosphorylation-dependent protein-protein interaction domains, including STAT proteins, has been described.[1] […]
# Fluorescence polarization assays
# Competitive fluorescence polarization (FP) assays for STAT1,[2] […] Briefly, peptide binding to proteins was analyzed using the following carboxyfluorescein (CF) -labelled pepti des at a concentration of 10 nM: STAT1: 5-CF-GpYDKPHVL-OH, STAT3: 5-CF-GpYLPQTV -NH2, STAT4: 5-CF-GpYLPQNID-OH, STAT5a and STAT5b: 5-CF-GpYLVLDKW-OH, STAT6: 5- […]
# CFGp[…]-OH. […] FP was measured using an Infinite F500 plate reader (Tecan) and measurements were converted into percent inhibition according to the binding curve equation. Curves were plotted and best fits calculated using OriginPro […]
# Homogenous time-resolved fluorescence (HTRF) assays for STAT3, STAT4, STAT5a and STAT5b were carried out using Cisbio Monoclonal Antibody Anti-6His-Tb Gold as the fluorescence donor (Perkin Elmer) and the corresponding CF-labelled binding peptide as the acceptor. […] The average reading from 3 wells was obtained. […]
row,SMILES,IC50
1,"Cc1nc(/N=N/c2ccc(S(=O)(=O)O)cc2S(=O)(=O)O)c(COP(=O)(O)O)c(C=O)c1O [PPADS, pyridoxalphosphate‐6‐azophenyl‐2',4'‐disulfonic acid]",2.92 ± 0.36 µM
2,Cc1nc(/N=N/c2cc(S(=O)(=O)O)ccc2S(=O)(=O)O)c(COP(=O)(O)O)c(C=O)c1O [iso‐PPADS],8.6 ± 1.3 µM
